Reference: patent US20100113484A1, “TREATING AGENT OF UROPATHY” (ASKA PHARMACEUTICAL CO., LTD., priority 2006, published 2010)
Like-named read-outs stand apart in the source and are kept apart here.

Assays:
[1] = target: T1, human recombinant PDE9 protein (Homo sapiens, UniProt O76083); test: Measurement of PDE9-inhibiting activity ([3H]-cGMP hydrolysis); format: biochemical
T1 construct: made in house; host or cells: COS-1 cells, transient transfection with pcDNA 3.1 (+); supernatant of the homogenate, not purified
Procedure: Based on the base sequence of hsPDE9A1 registered with GenBank database (accession No.: AF048837), hsPDE9A1 fragment was amplified by polymerase chain reaction under the following conditions, using the following sequence (Amasham Pharmacia Biotech) as the primer and Human Prostate […] cDNA library (CLONTECH) as the template DNA, with Pfu Turbo DNA polymerase ([…]):
PCR condition: [95° C., 5 min]×1 cycle, [(95° C., 1 min), (58° C., 2 min), (72° C., 3 min)]×25 cycles, [72° C., 10 min]×1 cycle
Thus obtained hsPDE9A1 fragment was given a restricted enzymatic treatment with NheI and NotI, and thereafter inserted into pcDNA 3.1 (+) expression vector (Invitrogen) to let it serve as a human PDE9 expression vector.
(§1) Human PDE9 expression vector-transformed Escherichia coli was mass incubated to produce a large amount of human PDE9 expression vector, which was transiently transfected into COS-1 cells, with LIPOFECTAMINE 2000 Reagent (GIBCO). The cells were homogenized in ice-cooled buffer A (40 mmol/L Tris-HCl, pH7.5, 15 mmol/L benzamidine, 15 mmol/L 2-mercaptoethanol, 1 μg/mL Pepstatin A, 1 μg/mL Leupeptin, 5 mmol/L EDTA) and centrifuged at 4° C., 14,000×g for 10 minutes. The supernatant was isolated to provide human recombinant PDE9 protein solution.
This mixed solution was incubated at 30° C. for 30 minutes and the enzymatic reaction of PDE9 was terminated by heating the system in boiling water for 90 seconds. Returning the system to room temperature, 50 μL of Snake venom (SIGMA: 1 mg/mL) was added, followed by 10 minutes' incubation at 30° C., to convert the [^3H]-5′-GMP produced in the previous reaction to [^3H]-guanosine. […] Thereafter [^3H]-guanosine was eluted with 3 mL of 3 mol/L aqueous ammonia and its radiation activity was measured with liquid scintillation counter.
PDE9 inhibition of the tested compound can be calculated by the following formula: […]
From the percent inhibition at various concentration levels of each tested compound, its IC50 value against PDE9 can be determined.

[2] = target: T2, human recombinant PDE5 protein (Homo sapiens, UniProt O76074); test: Measurement of PDE5-inhibiting activity; format: biochemical
T2 construct: made in house; host or cells: COS-1 cells, transient transfection with pcDNA 3.1 (+); supernatant of the homogenate, not purified
Procedure: PCR condition: [94° C., 2 min]×1 cycle, [(94° C., 30 sec), (65° C., 30 sec), (68° C., 3 min)]×25 cycles, [68° C., 6 min]×1 cycle
Thus obtained hsPDE5A1 fragment was given a restricted enzymatic treatment with XBaI and EcoRI, and thereafter inserted into pcDNA 3.1 (+) expression vector (Invitrogen) to let it serve as a human PDE5 expression vector.
as §1, with “PDE5” for “PDE9”, “A” for “A (40 mmol/L Tris-HCl, pH7.5, 15 mmol/L benzamidine, 15 mmol/L 2-mercaptoethanol, 1 μg/mL Pepstatin A, 1 μg/mL Leupeptin, 5 mmol/L EDTA)”

[3] = tested on: partial urethra obstruction model in guinea pigs; test: Dysuria pathological model: partial urethra obstruction model, cystometry; format: in vivo, Hartley female guinea pigs; conditions: guinea pig, i.v.
Procedure: Three-four weeks old Hartley female guinea pigs (Japan SLC, Inc.) were given celiotomy under anesthesia with pentobarbital (30 mg/kg i.p.) and in their urethra to the peripheral side by 1-2 mm from the bladder neck, each a polyethylene tube of 1.4 mm in width and 2.0 mm in inner diameter was placed. After closing the wound, the guinea pigs were bred for at least 3 weeks to produce partial urethra obstruction model in guinea pigs in which occurrence of intravesical pressure rise not accompanied by micturition (uninhibited contraction) and residual urine were observed.
The model was catheterized under anesthesia with urethane (1 g/kg i.p.) at the apex of urinary bladder and right jugular vein for cystometrography and intravenous administration, respectively. The other end of the bladder catheter was connected to a pressure transducer and infusion pump via a three way stop-cock, and physiological saline was continuously infused into the bladder through the infusion pump at a rate of 0.4 mL/min to induce micturition reflex. Immediately after the micturition reflex was induced, infusion of physiological saline into the bladder was stopped. The intravesical pressure at the time the micturition reflex was induced was measured with the pressure transducer, and the obtained cystometrogram was recorded with pen recorder. The urine voided was collected with disposable type weighing dish and its weight was measured. Further the physiological saline remained in the bladder was sucked with syringe via the bladder catheter and the residual urine volume was measured. The operations of suspending the infusion of physiological saline upon induction of micturition reflex, and about 1 minute thereafter resuming the infusion of physiological saline to induce micturition reflex were repeated plural times (generally 4 times) to stabilize the micturition reflex.
After stabilizing the micturition reflex, a compound solution (prepared by dissolving the compound or methanesulfonic acid salt thereof in DMSO and diluting it with physiological saline or distilled water) or physiological saline was administered into the vein at a volume of 10 mL/kg over 4 minutes, and simultaneously the above-described micturition reflex operations were repeated until 30 minutes passed after initiation of the administration, while measuring the intravesical pressure and the volumes of micturition and residual urine. Also the frequency of uninhibited contraction occurrence during the above-described operations was recorded.

[4] = Tables A and C, read-out: Inhibiting Activity (IC50 value) PDE9
[5] = Tables A and C, read-out: Inhibiting Activity (IC50 value) PDE5
[6] = Table B, read-out: Inhibiting Activity IC50 PDE9
[7] = Table B, read-out: Inhibiting Activity IC50 PDE5

T1 sequence (O76083 whole entry): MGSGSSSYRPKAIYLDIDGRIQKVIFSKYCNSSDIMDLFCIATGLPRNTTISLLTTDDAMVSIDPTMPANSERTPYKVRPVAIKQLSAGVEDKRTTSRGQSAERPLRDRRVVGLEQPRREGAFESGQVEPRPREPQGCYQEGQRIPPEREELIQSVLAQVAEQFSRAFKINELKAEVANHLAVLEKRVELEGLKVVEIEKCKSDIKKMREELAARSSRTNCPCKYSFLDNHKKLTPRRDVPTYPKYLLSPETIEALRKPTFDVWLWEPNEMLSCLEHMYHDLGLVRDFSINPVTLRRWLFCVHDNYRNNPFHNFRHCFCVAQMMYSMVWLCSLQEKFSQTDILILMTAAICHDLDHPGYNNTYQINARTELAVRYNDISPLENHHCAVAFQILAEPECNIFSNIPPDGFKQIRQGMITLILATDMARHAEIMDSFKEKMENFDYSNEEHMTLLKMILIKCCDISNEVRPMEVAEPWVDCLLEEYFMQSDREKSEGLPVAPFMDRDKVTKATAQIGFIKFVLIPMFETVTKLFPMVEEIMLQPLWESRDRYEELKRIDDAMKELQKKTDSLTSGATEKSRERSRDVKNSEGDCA

Row | SMILES | IC50 [1, 4] [nM] | IC50 [2, 5] [µM] | also measured
1 | Cc1c(C(=O)O)sc2nc(Cc3cccs3)[nH]c(=O)c12 [A-2, 5-Methyl-4-oxo-2-(thiophen-2-ylmethyl)-3,4-dihydrothieno-[2,3-d]pyrimidine-6-carboxylic acid] | 40 | 21.1 | Frequency of occurrence of uninhibited contraction after administration ([3]; 1 mg/kg): 0.47 times/min; Frequency of occurrence of uninhibited contraction volume change ([3]; 1 mg/kg): −0.44 times/min; Residual urine volume after administration ([3]; 1 mg/kg): 1.23 mL; Residual urine volume volume change ([3]; 1 mg/kg): -0.04 mL; Frequency of occurrence of uninhibited contraction after administration ([3]; 10 mg/kg): 0.78 times/min; Frequency of occurrence of uninhibited contraction volume change ([3]; 10 mg/kg): −0.13 times/min; Residual urine volume after administration ([3]; 10 mg/kg): 1.02 mL; Residual urine volume volume change ([3]; 10 mg/kg): -0.25 mL
2 | Cc1c(C(=O)O)sc2nc(Cc3ccccc3)[nH]c(=S)c12 [A-24, 2-Benzyl-5-methyl-4-thioxo-3,4-dihydrothieno[2,3-d]-pyrimidine-6-carboxylic acid] | 13 | 0.642 | 
3 | Cc1c(C(=O)O)sc2nc(Cc3cccc(Br)c3)[nH]c(=S)c12 [A-25, 2-(3-Bromobenzyl)-5-methyl-4-thioxo-3,4-dihydrothieno-[2,3-d]pyrimidine-6-carboxylic acid] | 11 | 0.712 | 
4 | Cc1c(C(=O)O)sc2nc(Cc3cccc(C(F)(F)F)c3)[nH]c(=S)c12 [A-27, 5-Methyl-4-thioxo-2-(3-trifluoromethylbenzyl)-3,4-dihydrothieno[2,3-d]pyrimidine-6-carboxylic acid] | 6 | 3.51 | 
5 | Cc1c(C(=O)O)sc2nc(Cc3ccc(Cl)c(Cl)c3)[nH]c(=S)c12 [A-28, 2-(3,4-Dichlorobenzyl)-5-methyl-4-thioxo-3,4-dihydrothieno-[2,3-d]pyrimidine-6-carboxylic acid] | 4 | 0.073 | 
6 | Cc1c(C(=O)O)sc2nc(Cc3ccc(F)c(Cl)c3)[nH]c(=S)c12 [A-29, 2-(3-Chloro-4-fluorobenzyl)-5-methyl-4-thioxo-3,4-dihydrothieno[2,3-d]pyrimidine-6-carboxylic acid] | 7 | 0.495 | 
7 | Cc1c(C(=O)O)sc2nc(CC3=CCCCC3)[nH]c(=S)c12 [A-30, 2-(Cyclohex-1-enylmethyl)-5-methyl-4-thioxo-3,4-dihydrothieno[2,3-d]pyrimidine-6-carboxylic acid] | 48 | 0.07 | 
8 | O=C(O)c1cc2c(=S)[nH]c(Cc3ccccc3)nc2s1 [A-32, 2-Benzyl-4-thioxo-3,4-dihydrothieno[2,3-d]pyrimidine-6-carboxylic acid] | 11 | 8.87 | 
9 | O=C(O)c1cc2c(=S)[nH]c(Cc3ccc(Cl)c(Cl)c3)nc2s1 [A-33, 2-(3,4-Dichlorobenzyl)-4-thioxo-3,4-dihydrothieno[2,3-d]-pyrimidine-6-carboxylic acid] | 5 | 0.721 | 
10 | Cc1c(C(=O)O)sc2nc(Cc3ccccc3)[nH]c(=O)c12 [A-34] | 35 | 10 | 
11 | O=C(O)c1ccc2c(=O)[nH]c(Cc3cccc(Cl)c3)nc2c1 [B-1, 2-(3-Chlorobenzyl)-4-oxo-3,4-dihydroquinazoline-7-carboxylic acid] |  |  | IC50 [1, 6]: 18 nM; IC50 [2, 7]: 6.21 µM
12 | O=C(O)c1ccc2c(=O)[nH]c(Cc3ccc(Cl)c(Cl)c3)nc2c1 [B-2, 2-(3,4-Dichlorobenzyl)-4-oxo-3,4-dihydroquinazoline-7-carboxylic acid] |  |  | IC50 [1, 6]: 35 nM; IC50 [2, 7]: 1.44 µM
13 | CC(C)c1ncc2c(=O)[nH]c3cc(Cl)ccc3n12 [C-1, 7-Chloro-1-isopropylimidazo[1,5-a]quinoxalin-4 (5H)-one] | 10 | 1.26 | 
14 | CC(C)c1ncc2c(=O)[nH]c3cc(C(=O)N(C)C)ccc3n12 [C-2, 1-Isopropyl-N,N-dimethyl-4-oxo-4,5-dihydroimidazo[1,5-a]-quinoxaline-7-carboxamide] | 42 | > 10 | 
15 | COc1cc2c(cc1C(=O)N(C)C)[nH]c(=O)c1cnc(C3CCCCC3)n12 [C-3, 1-Cyclohexyl-8-methoxy-N,N-dimethyl-4-oxo-4,5-dihydro-imidazo[1,5-a]quinoxaline-7-carboxamide] | 1.2 | > 10 | 
16 | CCOc1cc2c(cc1C(=O)N(C)C)[nH]c(=O)c1cnc(C3CCCCC3)n12 [C-4] | 3.4 | > 10 | 
17 | CN(C)C(=O)c1cc2[nH]c(=O)c3cnc(C4CCCCC4)n3c2cc1Cl [C-5, 8-Chloro-1-cyclohexyl-N,N-dimethyl-4-oxo-4,5-dihydroimidazo-[1,5-a]quinoxaline-7-carboxamide] | 3 | > 10 | 
18 | O=C(c1cc2[nH]c(=O)c3cnc(C4CCCCC4)n3c2cc1Cl)N1CCN(CCO)CC1 [C-6, 1-[(8-Chloro-1-cyclohexyl-4-oxo-4,5-dihydroimidazo[1,5-a]-quinoxalin-7-yl)carbonyl]-4-(2-hydroxyethyl)piperazine] | 8 | 7.54 | 
19 | CCc1ccc2c(c1)[nH]c(=O)c1cnc(CCC(=O)O)n12 [C-7, 3-(7-Ethyl-4-oxo-4,5-dihydroimidazo[1,5-a]quinoxalin-1-yl)-propionic acid] | 2 | > 10 | 
20 | O=C(O)CCc1ncc2c(=O)[nH]c3cc(C(F)(F)F)ccc3n12 [C-8, 3-(4-Oxo-7-trifluoromethyl-4,5-dihydroimidazo[1,5-a]-quinoxalin-1-yl)propionic acid] | 2 | 6.37 | 
21 | O=C(O)CCc1ncc2c(=O)[nH]c3cc(Br)ccc3n12 [C-9, 3-(7-Bromo-4-oxo-4,5-dihydroimidazo[1,5-a]quinoxalin-1-yl)-propionic acid] | 3 | 2.81 | 
22 | O=C(O)/C=C/c1ccc2c(=O)[nH]c3cc(C(F)(F)F)ccc3n12 [C-10, (E)-3-(4-oxo-7-trifluoromethyl-4,5-dihydropyrrolo[1,2-a]-quinoxalin-1-yl)acrylic acid] | 8 | 4.56 | 
